What all share (type): physicochemical
The nature of data set [1]: Solubility test in 1.5 M LiClO4/FEC. To be noted: average of repeated tests. As for the experimental part:
Solubility test. A solution of 1.5 M LiClO4/FEC was used for the solubility measurements. The solution was gradually added to a vial containing known amounts of the organic compounds used as the catholytes (Tri-TEMPO, C3-PTZ, and CP). Once a clear solution was obtained, the volume of the electrolyte was determined using an analytical pipette. The solubilities of the organic compounds were calculated from the ratio of the molar amount to the electrolyte volume. These steps were repeated twice, and the average values are presented.
Solubility test. A solution of 1.5 M LiClO4/FEC was used for the solubility measurements. The solution was gradually added to a vial containing known amounts of the organic compounds used as the catholytes (Tri-TEMPO, C3-PTZ, and CP). Once a clear solution was obtained, the volume of the electrolyte was determined using an analytical pipette. The solubilities of the organic compounds were calculated from the ratio of the molar amount to the electrolyte volume. These processes were repeated twice, and the average values are presented.
Solubility Test. A solution of FEC/LiClO4 (1.5 M) was used for the solubility measurements under an inert argon atmosphere at a temperature of 27° C. The solution was gradually added to a vial containing known amounts of the organic compounds used as the catholytes (Tri-TEMPO, C3-PTZ, and CP). Once a clear solution was obtained, the volume (50 μL) of the electrolyte was determined using an analytical pipette (P20). The solubilities of the organic compounds were calculated from the ratio of the molar amount to the electrolyte volume. These processes were repeated twice, and the average values are presented.

The nature of data set [2]: Screening of cathode materials: solubilities in both phases of the FEC/BMP-TFSI nonaqueous biphasic system. Conditions: for solubility in FEC (catholyte): FEC / cathode electrolyte FEC/LiClO4; for affinity towards the anolyte: anode electrolyte BMP-TFSI/LiTFSI. As for the experimental part: (§1) To explore catholyte materials that meet these solubility requirements, eleven organic compounds were selected, and their solubilities in both phases of the NBS were tested. These materials included derivatives of phenothiazine, cyclopropenium, 2,2,6,6-tetramethylpiperidinyloxy (TEMPO), anthraquinone (AQ), and ferrocene (FIG. 9).
(§2) To explore catholyte materials that meet these solubility requirements, eleven organic compounds were selected, and their solubilities in both phases of the NBS were tested. These materials included derivatives of phenothiazine, cyclopropenium 2,2,6,6-tetramethylpiperidinyloxy (TEMPO), anthraquinone (AQ), and ferrocene (FIG. 33). […] The solubilities of Tri-TEMPO, C3-PTZ, and CP in 1.5 M FEC/LiClO4 were ~1.2 M, ~1 M, and 1.8 M, respectively.
(§3) To explore catholyte materials that meet these solubility requirements, eleven organic compounds were selected, and their solubilities in both phases of the NBS were tested. These materials included derivatives of phenothiazine, cyclopropenium, 2,2,6,6-tetramethylpiperidinyloxy (TEMPO), anthraquinone (AQ), and ferrocene (FIGS. 33 and 102). […] The solubilities of Tri-TEMPO, C3-PTZ, and CP in […] (1.5 M) were ~1.2 M, ~1 M, and 1.8 M, respectively.

A short description of data set [3]: Crossover in the biphasic system under static conditions (UV-visible spectroscopy and CV). Conditions: 15 days, 0.5 M redox material, FEC/BMP-TFSI biphasic system. As for the experimental part:
as §1, §2, §3
Physiochemical Characterization. The UV-visible absorption spectra were recorded using a UV-visible spectrophotometer (Cary 8454 UV-Vis, Agilent Technologies). To perform UV-vis measurements, samples with concentrations below 5 mM were prepared. To achieve this, highly concentrated samples were diluted in an appropriate electrolyte solvent before conducting the UV-vis measurements. For the UV-vis calibration curve, stock solutions of Tri-TEMPO at concentrations of 0.3 M and 0.5 M were prepared in FEC/LiClO4 (1.5 M). These solutions were then further diluted to prepare solutions with concentrations of 1, 2, 3, 4, and 5 mM. In addition, a blank sample containing no redox materials was prepared to measure the UV-vis spectrum. The absorption intensity of the UV-vis spectra at different concentrations was used to construct the UV-vis calibration curve. […]

Data set [4] is described as follows: Cyclic voltammetry of redox-active cathode materials in 0.1 M LiClO4/FEC. To be noted: for reversible redox couple potential: 5 mM in 0.1 M LiClO4/FEC; for electrochemical stability on repeated CV cycling: in 0.1 M LiClO4/FEC, 1st vs 2000th cycle at 200 mV/s; for ratio of cathodic peak current (ipc) and anodic peak current (ipa): scan rates 50-200 mV/s. The protocol:
(§4) Electrochemical characterization. CV measurements were performed to evaluate the electrochemical properties of the redox-active materials (Tri-TEMPO, C3-PTZ, and CP) as well as the crossover of the redox-active materials before and after long-term battery cycling. For the CV measurements, 5 mM Tri-TEMPO, 5 mM C3-PTZ, and 5 mM CP solutions were prepared in 0.1 M LiClO4/FEC electrolyte. A 3-mm glassy carbon disk was used as the working electrode and was polished with 5-nm Al2O3 before the measurements. A piece of Pt wire (0.5 mm) was used as the counter electrode while a Ag/Ag^+ electrode was used as the reference electrode.
as §4, with “characterizations.” for “characterization.”, “mM of” for “mM”, “Tri-TEMPO,” for “Tri-TEMPO, 5 mM”, “and” for “and 5 mM”, “FEC/LiClO4” for “LiClO4/FEC”, “5 nm” for “5-nm”
Electrochemical Characterizations. For the CV measurements, 5 mM of Tri-TEMPO, C3-PTZ, and CP solutions were prepared in FEC/LiClO4 (0.1 M) electrolyte. A glassy carbon disk (CHI Instrument, 3 mm) was used as the working electrode and was polished with Al2O3(Pine Research Instrumentation, Inc., […]) before the measurements, where water was used as the solvent to polish the electrode. A piece of Pt wire (Pine Research Instrumentation, Inc., thickness 0.5 mm, purity 99.99%) was used as the counter electrode while an Ag/Ag+ (Fisher Scientific) electrode was used as the reference electrode. The CV measurements were performed using a Bio-Logic potentiostat. Electrochemical impedance spectroscopy (EIS) was performed using a potentiostatic signal spanning from 200 KHz to 100 mHz, with an amplitude of 10 mV. The measurements were conducted under open-circuit voltage (OCV) conditions for a total of 54 data points. The charge/discharge performances were evaluated using Land and Bio-Logic potentiostats.

The nature of data set [5]: 1H NMR stability of C3-PTZ and CP at room temperature and 60° C. To be noted: over 10 days at 25° C. and 60° C., CD3CN. As for the experimental part:
The ^1H NMR spectra were recorded on a Bruker AV400 spectrometer (400 MHz). The chemical shifts were reported in ppm. To determine if CP or C3PTZ had crossed through the biphasic layer, we extracted […] samples from anolyte before and after subjecting the system to extended charge/discharge cycles (~100 cycles). These […] samples were subjected to 1H NMR analysis by combining them with […] of CD3CN, resulting in a total NMR solvent volume of […]. In addition, we followed specific sample preparation procedures to assess the stability of CP and C3-PTZ using ^1H NMR. Approximately 5 mg of either solid CP or C3-PTZ was mixed with […] of CD3CN to create NMR samples. Two NMR samples were prepared for each compound in NMR tubes equipped with J. Young air-inlet valves. Firstly, we recorded ^1H NMR spectra for these NMR samples, after which we stored one NMR tube of each sample at room temperature while the other was placed at 60° C. Subsequently, we collected a series of ^1H NMR spectra at 24-h intervals for 10 days using these samples.

A short description of data set [6]: 1H and 19F NMR determination of LiTFSI concentration in the TEGDME and NFTTS layers. Conditions: TEGDME/NFTTS biphasic system after salt-out. As for the experimental part:
Physicochemical characterizations. The UV-visible absorption spectra were collected on a UV-visible spectrophotometer (Agilent Technologies, Cary 8454 UV-Vis). To perform UV-visible measurements, dilute samples with concentrations below 5 mM were prepared. To achieve this, highly concentrated samples were diluted in an appropriate electrolyte solvent before conducting the UV-visible measurements. A blank sample containing no redox materials was prepared to measure the UV-visible spectrum. The ^1H and ^19F NMR spectra were recorded on a Bruker AV400 spectrometer (400 MHz). The chemical shifts were reported in ppm. To measure the concentration of LiTFSI in TEGDME and NFTTS layers of the biphasic system, a sample of 10 μL volume was collected from each layer and mixed with 400 μL of CDCl3 for preparing the NMR samples. ^1H NMR spectra were first recorded using these samples, and 50 μL of TBAPF6, as an internal standard, was then added to those samples before performing ^19F NMR.
For Design-I, because the gravimetric densities of the solvents followed the sequence TEGDME<NFTTS<FEC, TEGDME was used as the anolyte for the top layer, NFTTS as the ion-exchange layer in the middle, and FEC as the catholyte in the bottom layer. […] This property poses a challenge in constructing a stable triphasic system with the desired immiscibility between the layers. […]

SMILES strings stand for the structures. “Also recorded” adds a separate entry of the source.

By solubility is commonly meant the dissolved amount per volume that the medium holds. Higher therefore signals much dissolved substance. Regarding `CCCN1c2ccccc2Sc2ccccc21` [C3-PTZ, N-propyl phenothiazine], the solubility in data set [1] is recorded as ~ 1 M. For the same compound, in data set [2], the “solubility in FEC (catholyte)” value was “high solubilities” and the “affinity towards the anolyte” value is listed as “extremely poor affinity”. For the same compound, in data set [3], the “crossover from catholyte to anolyte” value is “Negligible crossover”. In data set [4], the “reversible redox couple potential” value was 0.33 V vs. Ag/Ag^+; the “electrochemical stability on repeated CV cycling” value (“electrochemical stability” below) is “high cycling stability”; the “ratio of cathodic peak current (ipc) and anodic peak current (ipa)” value (shortened to “ratio of cathodic peak current”) was about 1. Besides, the “thermostability by 1H NMR” value in data set [5] is recorded as “superior thermostability; also recorded: improved thermo-stability”.
Take `CCCCN(CC)c1c(N(CC)CCCC)[c+]1N(CC)CCCC.F[P-](F)(F)(F)(F)F` [CP, tris(dialkylamino)cyclo-propenium]: in data set [1], the solubility is 1.8 M. In data set [2], the “solubility in FEC (catholyte)” value is given as “high solubilities” and the “affinity towards the anolyte” value was “extremely poor affinity”. The “crossover from catholyte to anolyte” value in data set [3] is given as “Negligible crossover”. In addition, in data set [4], the “reversible redox couple potential” value came out at 0.93 V vs. Ag/Ag^+; the “electrochemical stability” value is reported as “high cycling stability”; the “ratio of cathodic peak current” value is about 1. For the same compound, the “thermostability by 1H NMR” value in data set [5] is “superior thermostability; also recorded: improved thermo-stability”.
Regarding `O=S(=O)([N-]S(=O)(=O)C(F)(F)F)C(F)(F)F.[Li+]` [LiTFSI, lithium bis(trifluoromethanesulfonyl)imide], in data set [6], the “concentration of LiTFSI in the NFTTS phase” value is reported as 0.14 M and the “concentration of LiTFSI in the TEGDME phase” value worked out at 1 M.
On to `CC1(C)CC(Nc2nc(NC3CC(C)(C)N(OC4CCCCC4)C(C)(C)C3)nc(NC3CC(C)(C)N(OC4CCCCC4)C(C)(C)C3)n2)CC(C)(C)N1OC1CCCCC1` [Tri-TEMPO, 2,4,6-tri-(1-cyclohex-yloxy-4-imino-2,2,6,6-tetramethylpiperidine)-1,3,5-triazine], for which the solubility in data set [1] is ~ 1.2 M. Further, in data set [2], the “solubility in FEC (catholyte)” value is recorded as “high solubilities” and the “affinity towards the anolyte” value is given as “extremely poor affinity”. The “crossover from catholyte to anolyte” value in data set [3] is reported as “Negligible crossover”. For the same compound, in data set [4], the “reversible redox couple potential” value amounted to 0.37 V vs. Ag/Ag^+; the “electrochemical stability” value is reported as “high cycling stability”; the “ratio of cathodic peak current” value is given as about 1.

(Values after patent US20260269287A1, “ALL-NONAQUEOUS MEMBRANE-FREE FLOW BATTERIES” (University of Cincinnati, priority 2023, published 2026).)
